Reference: ChEMBL document CHEMBL2176999, “Update on the development of antagonists of chemoattractant receptor-homologous molecule expressed on Th2 cells (CRTH2). From lead optimization to clinical proof-of-concept in asthma and allergic rhinitis” (J Med Chem, 2012)

How the values were obtained:
[1] = target: T1, Prostaglandin D2 receptor 2 (Homo sapiens, UniProt Q9Y5Y4)
T1 sequence (Q9Y5Y4 whole entry): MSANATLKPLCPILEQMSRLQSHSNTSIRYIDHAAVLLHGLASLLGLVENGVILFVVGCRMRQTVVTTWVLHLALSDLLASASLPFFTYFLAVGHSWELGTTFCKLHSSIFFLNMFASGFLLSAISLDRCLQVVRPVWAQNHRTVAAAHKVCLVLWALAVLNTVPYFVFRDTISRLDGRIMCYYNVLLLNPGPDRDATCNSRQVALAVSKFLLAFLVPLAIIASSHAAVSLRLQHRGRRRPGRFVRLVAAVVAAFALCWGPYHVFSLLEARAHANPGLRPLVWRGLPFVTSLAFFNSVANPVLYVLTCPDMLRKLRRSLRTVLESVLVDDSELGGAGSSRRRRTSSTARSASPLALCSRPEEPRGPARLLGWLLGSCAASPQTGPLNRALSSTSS
Description: Inhibition of CRTH2 in human whole blood

[2] = target: T1, Prostaglandin D2 receptor 2; remark: listed apart in the source
[3] = target: Sodium-dependent serotonin transporter (Homo sapiens, UniProt P31645); assay: Inhibition of SERT
[4] = target: T1, Prostaglandin D2 receptor 2; assay: Displacement of [3H]PGD2 from CRTH2 expressed in CHO cells after 1 hr by beta counting analysis; format: cell-based
[5] = target: T1, Prostaglandin D2 receptor 2; assay: Displacement of [3H]PGD2 from human CRTH2 expressed in K562 cells after 60 mins by scintillation counting; format: cell-based
[6] = target: T1, Prostaglandin D2 receptor 2; assay: Displacement of [3H]PGD2 from human CRTH2 expressed in K562 cells after 60 mins by scintillation counting in presence of 4% human serum albumin; format: cell-based
[7] = target: T1, Prostaglandin D2 receptor 2; assay: Antagonistic activity at CRTH2 in human eosinophils assessed as inhibition of PGD2-induced calcium mobilization after 60 mins by Fluo-3 based fluorescence assay; format: functional
[8] = target: T1, Prostaglandin D2 receptor 2; assay: Displacement of [3H]PGD2 from human CRTH2 expressed in HEK293 cells after 90 mins by TopCount analysis; format: cell-based
[9] = Oral bioavailability in rat; format: ADME, organism-based; settings: in vivo
in vivo = settings: rat
[10] = target: Aldo-keto reductase family 1 member B1 (Rattus norvegicus, UniProt P07943); assay: Inhibition of rat aldose reductase

Sodium-dependent serotonin transporter, sequence (P31645 whole entry): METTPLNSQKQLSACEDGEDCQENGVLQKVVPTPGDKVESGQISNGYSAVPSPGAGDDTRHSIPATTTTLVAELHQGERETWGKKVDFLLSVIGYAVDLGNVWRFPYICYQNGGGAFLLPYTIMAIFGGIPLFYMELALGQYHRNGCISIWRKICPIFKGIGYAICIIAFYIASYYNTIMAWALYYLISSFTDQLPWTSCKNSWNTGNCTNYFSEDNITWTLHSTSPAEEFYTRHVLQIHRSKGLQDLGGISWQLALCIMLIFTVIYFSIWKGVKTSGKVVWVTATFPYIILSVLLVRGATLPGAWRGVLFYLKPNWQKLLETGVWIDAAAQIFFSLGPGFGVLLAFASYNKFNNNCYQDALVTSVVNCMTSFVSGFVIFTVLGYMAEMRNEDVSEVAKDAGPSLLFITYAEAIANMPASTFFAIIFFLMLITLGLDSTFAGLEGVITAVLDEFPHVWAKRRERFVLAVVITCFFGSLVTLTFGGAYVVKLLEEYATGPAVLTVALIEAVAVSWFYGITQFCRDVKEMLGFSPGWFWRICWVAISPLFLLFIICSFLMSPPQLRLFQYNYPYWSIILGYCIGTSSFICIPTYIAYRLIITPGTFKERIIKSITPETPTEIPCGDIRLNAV

C[C@H]1C[C@@H](N(C(=O)CCC(=O)O)c2ccccc2)c2ccccc2N1C(=O)c1ccccc1 showed an IC50 [1] of 0.77 nM.

For Cc1c(Sc2ccc(Cl)cc2)c2c(Cl)nccc2n1CC(=O)O, the Ki [2] was 58 nM.

Work on Cc1c(CC(=O)O)c2cc(F)ccc2n1S(=O)(=O)c1ccc(S(C)(=O)=O)cc1 yielded an IC50 [1] of 106 nM.

For Cc1ccc2c(c1)c(-c1ccnc3c(C)cccc13)c(C)n2CC(=O)O, the IC50 [3] was 2000 nM.

In the case of Cc1c(Sc2ccc(Cl)cc2)c2cc(Cl)ncc2n1CC(=O)O, the Ki [2] is reported as 106 nM.

Cc1c(Sc2ccc(Cl)cc2)c2ncccc2n1CC(=O)O gave a Ki [4] of 143 nM and a Ki [3] of 143 nM.

Molecule CCc1nc2c(F)ccc(OCC(=O)O)c2c(OC(F)F)c1Cc1ccc(-n2cccn2)cc1 has a Ki [5] of 5.4 nM.

O=C(Nc1cccc(-c2ccc(Cl)cc2)n1)c1ccc(Oc2cc3c(cc2Cl)[C@H](C(=O)O)CCO3)cc1 showed an IC50 [6] of 22 nM.

With Cc1cc(CC(=O)O)c2c(C)c(Cc3ccccc3)c(=O)oc2c1 the Ki [5] was 32 nM.

For CCc1c(CC(=O)O)c(C2CC2)nn1Cc1ccc(NC(=O)c2ccc(C(F)(F)F)cc2)cc1, the Ki [2] was 0.5 nM.

For O=C(O)Cc1ccc(Oc2ccc(NC(=O)c3ccc(Cl)c(Cl)c3)cc2)c(CNS(=O)(=O)c2ccc(F)cc2)c1, the Ki [2] was < 1000 nM.

Molecule CCN(Cc1cc(C(F)(F)F)ccc1-c1cc(CC(=O)O)ccc1OC)C(=O)C1CC1 has an IC50 [1] of 6.5 nM and a Ki [2] of 13.5 nM.

In the case of Cc1c(Cc2ccc(S(C)(=O)=O)cc2)c2cc(F)ccc2n1CC(=O)O, the IC50 [1] is reported as 8 nM.

Cc1c(Cc2nc3ccccc3s2)c2cc(F)ccc2n1CC(=O)O showed an IC50 [1] of 343 nM.

Molecule Cc1c(CC(=O)O)c2cc(F)ccc2n1Cc1ccc2ccccc2c1 has a Ki [7] of 9 nM.

Cc1c(Cc2ccc3ccccc3c2)c2cc(F)ccc2n1CC(=O)O showed an IC50 [1] of 812 nM and a Ki [7] of 15 nM.

Work on Cc1c(CC(=O)O)c2cc(F)ccc2n1Cc1nc2ccccc2s1 yielded an IC50 [1] of 2400 nM and a Ki [7] of 44 nM.

Work on O=C(O)Cn1c2c(c3cc(F)ccc31)C[C@H](NC(=O)CC(c1ccccc1)c1ccccc1)CC2 yielded an IC50 [8] of 2 nM.

With CN(C(=O)C1(C)CCc2c(c3ccccc3n2CC(=O)O)C1)c1cccc(Cl)c1 (stereo unspecified) the IC50 [8] was 1 nM.

In the case of Cc1c(Cc2ccc3ccccc3n2)c2cc(F)ccc2n1CC(=O)O [TIMAPIPRANT], the bioavailability [9] is reported as 100%, the half-life (in vivo) is reported as 3.5 h and the IC50 [10] is reported as 550 nM.
